Key:
in vivo = settings: dog; for Tmax / half-life / AUC(0-inf) / AUC(0-t) / CL/F / Cmax / Vd/F: beagle, po
Method: (§1) Groups of four purpose-bred beagles per cohort were administered ascending doses of bexagliflozin in the form of a proline co-crystal consisting of two moles of L-proline for every mole of bexagliflozin. The co-crystal was dissolved in 10% PEG400 and administered by oral gavage to dogs that had been fasted overnight. Control dogs were administered 10% PEG400. One hour after dosing, glucose solution (2 g kg^−1, 5 ml kg^−1) was administered by gavage. Serum glucose concentrations were quantitated by an automated clinical chemistry analyzer for samples collected before dosing, before glucose challenge, and 15, 30, 60, and 120 min after glucose challenge. Urine was collected from 0 to 4 h, 4 to 8 h and 8 to 24 h after dosing for electrolyte analyses (Na^+, K^+, Cl^− and Ca^2+) and glucose measurement. Whole blood samples of approximately 500 μL were collected from the cephalic vein 0, 0.25, 0.5, 1, 2, 4, 8, 12 and 24 h after dosing for pharmacokinetic analysis.

purpose-bred beagles = experiment: 24 h urine collection (glucose excretion, volume, electrolytes) in dogs; type: in vivo, dog; settings: for 24 h urine Cl^− / 24 h urine K^+ / 24 h urine Na^+ / 24 h urine Volume: mean ± SD, n=4
Method: as §1
Urine output increased in the treatment group, consistent with an osmotic diuresis or with a role for the inhibited transporters in water reuptake in the proximal tubule.

cats = experiment: Urinary glucose excretion in cats given bexagliflozin tablets; type: in vivo, cat
cats with diabetes = experiment: Owner and veterinarian assessments of vitality and weight in diabetic cats; type: in vivo, cat
Description: Assessments by both owners and veterinarians of correlative measures of cat vitality were also collected over the course of various studies. Some of the relevant measures for this analysis are the subjective impressions of cat musculature, solicited from both owners and veterinarians, and owner views of cat overall activity as well as leaping ability. The rating instrument was a 4-point scale with 0=excellent, 1=good, 2=fair and 3=poor.

feline SGLT2 = experiment: Inhibition of feline SGLT2

- Tmax (in vivo): ~0.5 h
- half-life (in vivo): 1.67 to 5.23 h
- AUC(0-inf) (in vivo; 0.02 mg/kg): 45.3 ± 7.9 ng·h/mL
- AUC(0-t) (in vivo; 0.02 mg/kg): 35.6 ± 5.2 ng·h/mL
- CL/F (in vivo; 0.02 mg/kg): 7.6 mL/min/kg
- Cmax (in vivo; 0.02 mg/kg): 16.3 ± 2.7 ng/mL
- Tmax (in vivo; 0.02 mg/kg): 0.5 h
- Vd/F (in vivo; 0.02 mg/kg): 1.08 ± 0.128 L/kg
- half-life (in vivo; 0.02 mg/kg): 1.67 ± 0.26 h
- AUC(0-inf) (in vivo; 0.067 mg/kg): 257 ± 62 ng·h/mL
- AUC(0-t) (in vivo; 0.067 mg/kg): 240 ± 55 ng·h/mL
- CL/F (in vivo; 0.067 mg/kg): 4.53 mL/min/kg
- Cmax (in vivo; 0.067 mg/kg): 72.9 ± 11 ng/mL
- Tmax (in vivo; 0.067 mg/kg): 0.5 h
- Vd/F (in vivo; 0.067 mg/kg): 1.06 ± 0.067 L/kg
- half-life (in vivo; 0.067 mg/kg): 2.81 ± 0.61 h
- AUC(0-inf) (in vivo; 0.2 mg/kg): 769 ± 95 ng·h/mL
- AUC(0-t) (in vivo; 0.2 mg/kg): 725 ± 80 ng·h/mL
- CL/F (in vivo; 0.2 mg/kg): 4.42 mL/min/kg
- Cmax (in vivo; 0.2 mg/kg): 233 ± 26 ng/mL
- Tmax (in vivo; 0.2 mg/kg): 0.25 h
- Vd/F (in vivo; 0.2 mg/kg): 1.12 ± 0.08 L/kg
- half-life (in vivo; 0.2 mg/kg): 2.95 ± 0.28 h
- AUC(0-inf) (in vivo; 0.67 mg/kg): 2670 ± 131 ng·h/mL
- AUC(0-t) (in vivo; 0.67 mg/kg): 2600 ± 104 ng·h/mL
- CL/F (in vivo; 0.67 mg/kg): 4.2 mL/min/kg
- Cmax (in vivo; 0.67 mg/kg): 801 ± 46 ng/mL
- Tmax (in vivo; 0.67 mg/kg): 0.5 h
- Vd/F (in vivo; 0.67 mg/kg): 1.89 ± 0.398 L/kg
- half-life (in vivo; 0.67 mg/kg): 5.23 ± 1.23 h
- AUC(0-inf) (in vivo; 2 mg/kg): 8700 ± 1470 ng·h/mL
- AUC(0-t) (in vivo; 2 mg/kg): 8600 ± 1520 ng·h/mL
- CL/F (in vivo; 2 mg/kg): 3.95 mL/min/kg
- Cmax (in vivo; 2 mg/kg): 2200 ± 539 ng/mL
- Tmax (in vivo; 2 mg/kg): 0.5 h
- Vd/F (in vivo; 2 mg/kg): 1.37 ± 0.601 L/kg
- half-life (in vivo; 2 mg/kg): 3.89 ± 0.88 h
- dose proportionality of Cmax and AUC (in vivo): roughly dose proportional
Compound: OC[C@H]1O[C@@H](c2ccc(Cl)c(Cc3ccc(OCCOC4CC4)cc3)c2)[C@H](O)[C@@H](O)[C@@H]1O [Bexagliflozin, (2S,3R,4R,5 S,6R)-2-(4-chloro-3-(4-(2-cyclopropoxyethoxy)benzyl)phenyl)-6-(hydroxymethyl)tetrahydro-2H-pyran-3,4,5-triol]
- 24 h urine Cl^− (purpose-bred beagles; dogs, 0.02 mg kg^−1 oral): 307.4 ± 87.7 mg
- 24 h urine K^+ (purpose-bred beagles; dogs, 0.02 mg kg^−1 oral): 426.2 ± 62.1 mg
- 24 h urine Na^+ (purpose-bred beagles; dogs, 0.02 mg kg^−1 oral): 178.7 ± 16.7 mg
- 24 h urine Volume (purpose-bred beagles; dogs, 0.02 mg kg^−1 oral): 118.0 ± 30.8 mL
- 24 h urine Cl^− (purpose-bred beagles; dogs, 0.067 mg kg^−1 oral): 403.4 ± 111.4 mg
- 24 h urine K^+ (purpose-bred beagles; dogs, 0.067 mg kg^−1 oral): 476.8 ± 96.5 mg
- 24 h urine Na^+ (purpose-bred beagles; dogs, 0.067 mg kg^−1 oral): 220.9 ± 53.9 mg
- 24 h urine Volume (purpose-bred beagles; dogs, 0.067 mg kg^−1 oral): 153.1 ± 44.5 mL
- 24 h urine Cl^− (purpose-bred beagles; dogs, 0.20 mg kg^−1 oral): 526.5 ± 127.8 mg
- 24 h urine K^+ (purpose-bred beagles; dogs, 0.20 mg kg^−1 oral): 558.8 ± 118.2 mg
- 24 h urine Na^+ (purpose-bred beagles; dogs, 0.20 mg kg^−1 oral): 275.7 ± 69.5 mg
- 24 h urine Volume (purpose-bred beagles; dogs, 0.20 mg kg^−1 oral): 214.1 ± 53.5 mL
- 24 h urine Cl^− (purpose-bred beagles; dogs, 0.67 mg kg^−1 oral): 573.9 ± 166.5 mg
- 24 h urine K^+ (purpose-bred beagles; dogs, 0.67 mg kg^−1 oral): 587.7 ± 113.5 mg
- 24 h urine Na^+ (purpose-bred beagles; dogs, 0.67 mg kg^−1 oral): 300.2 ± 66.4 mg
- 24 h urine Volume (purpose-bred beagles; dogs, 0.67 mg kg^−1 oral): 225.0 ± 66.9 mL
- 24 h urine Cl^− (purpose-bred beagles; dogs, 2.0 mg kg^−1 oral): 595.8 ± 80.6 mg
- 24 h urine K^+ (purpose-bred beagles; dogs, 2.0 mg kg^−1 oral): 599.7 ± 93.5 mg
- 24 h urine Na^+ (purpose-bred beagles; dogs, 2.0 mg kg^−1 oral): 313.1 ± 35.1 mg
- 24 h urine Volume (purpose-bred beagles; dogs, 2.0 mg kg^−1 oral): 247.7 ± 35.2 mL
- % of the maximum pharmacological effect (purpose-bred beagles; dogs, approximately 1 mg kg^−1 once daily): approximately 90%
- maximum urinary glucose excretion per body mass (purpose-bred beagles; dogs, average mass 5.84 kg): 4.23 g glucose per kg of body mass
- % of the maximum pharmacodynamic effect (purpose-bred beagles; dogs, dose 50 μg kg^−1, based on results in beagle dogs): 30%
- % of the maximum pharmacodynamic effect (purpose-bred beagles; dogs, dose 100 μg kg^−1): 46%
- % of the maximum pharmacodynamic effect (purpose-bred beagles; dogs, dose 200 μg kg^−1): 63%
- % of the maximum pharmacodynamic effect (purpose-bred beagles; dogs, dose 400 μg kg^−1): 77%
- % of the maximum pharmacodynamic effect (purpose-bred beagles; dogs, dose 800 μg kg^−1): 87%
- % of the maximum pharmacodynamic effect (purpose-bred beagles; dogs, dose 1600 μg kg^−1): 93%
- % of the maximum pharmacodynamic effect (purpose-bred beagles; dogs, dose 3200 μg kg^−1): 96%
- % of the maximum pharmacodynamic effect (purpose-bred beagles; dogs, eighth value, no matching dose printed): 98%
- Emax for urinary glucose excretion (purpose-bred beagles; dogs, simple logistic model fit): 24.69 g of glucose in 24 h
- ED50 for 24 h urinary glucose excretion (purpose-bred beagles; dogs, simple logistic model fit, doses 0.02 to 2.0 mg kg^−1): 0.116 mg/kg
- potency by ED50 in dogs relative to cats (purpose-bred beagles; urinary glucose excretion ED50, dogs vs cats): approximately 4 times
- % of the maximum pharmacodynamic effect (cats; cats, dose 200 μg kg^−1, based on results in purpose-bred cats): 28%
- % of the maximum pharmacodynamic effect (cats; cats, dose 400 μg kg^−1): 44%
- % of the maximum pharmacodynamic effect (cats; cats, dose 800 μg kg^−1): 61%
- % of the maximum pharmacodynamic effect (cats; cats, dose 1600 μg kg^−1): 76%
- % of the maximum pharmacodynamic effect (cats; cats, dose 3200 μg kg^−1): 86%
- % of the maximum pharmacodynamic effect (cats; cats, dose 6400 μg kg^−1): 93%
- % of the maximum pharmacodynamic effect (cats; cats, dose 12800 μg kg^−1): 96%
- % of the maximum pharmacodynamic effect (cats; cats, dose 25600 μg kg^−1): 98%
- ED50 for urinary glucose excretion (cats; cats, tablets of varying strengths, simple logistic model): approximately 0.5 mg kg^−1
- Emax for urinary glucose excretion (cats; healthy cats): 2.21 g of glucose per kg of body mass
- owner assessment of activity (cats with diabetes; 4-point scale): more active
- owner assessment of leaping ability (cats with diabetes; 4-point scale): better leaping ability
- veterinarian and owner assessments of musculature (cats with diabetes; 4-point scale, statistically significant): musculature of study cats had improved
- mean cat weight (cats with diabetes; by visit, highly significant): mean cat weight increased
- inhibition of feline SGLT2 (in words) (feline SGLT2): potent but less selective inhibitor
